Data on 10 molecules can be found in paper PMC9032385, “A2A Adenosine Receptor Antagonists: Are Triazolotriazine and Purine Scaffolds Interchangeable?” (Molecules, 2022).

Data set [1] relates to PD patients. Details: method as in PMID 26523919. The conditions noted are these: two phase III trials, adjunct to levodopa in PD patients; cited from earlier work.
Data set [2] concerns the target T1, A2BAR (Homo sapiens, UniProt P29275).
T1 construct: expressed in transfected cells
T1 sequence (P29275 1-332): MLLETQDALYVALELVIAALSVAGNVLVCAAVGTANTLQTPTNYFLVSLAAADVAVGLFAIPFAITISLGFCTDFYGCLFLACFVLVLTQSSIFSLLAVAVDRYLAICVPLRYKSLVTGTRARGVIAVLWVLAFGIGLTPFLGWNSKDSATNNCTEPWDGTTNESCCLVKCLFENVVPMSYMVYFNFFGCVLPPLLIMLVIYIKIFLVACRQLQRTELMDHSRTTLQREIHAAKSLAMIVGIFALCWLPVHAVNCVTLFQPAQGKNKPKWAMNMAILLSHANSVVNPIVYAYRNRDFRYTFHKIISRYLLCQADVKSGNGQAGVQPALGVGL
Nature of the data set: Functional study at A2BAR (GloSensor cAMP assay; inhibition of NECA-stimulated adenylyl cyclase activity). Format: cell-based. As to conditions: Ki calculated from IC50 of inhibition of NECA-stimulated adenylyl cyclase activity, CHO cells. How it is done:
(§1) The affinities of the newly synthesized compounds 7–13 and 17–21 were determined in binding studies at human recombinant A1, A2A, and A3 ARs, stably transfected in Chinese hamster ovary (CHO) cells, using [^3H]CCPA (2-chloro-N^6-cyclopentylAdo), [^3H]NECA (5′-N-ethylcarboxamidoAdo), and [^3H]HEMADO (2-hexynyl-N^6-methylAdo) as respective radioligands. Most of the compounds were also evaluated at A2BARs in a functional study using the GloSensor cAMP assay. The results are reported in Table 1 as Ki values in nM (± standard errors). In the case of A2BARs, Ki-values were calculated from IC50-values determined by the inhibition of NECA-stimulated adenylyl cyclase activity.

In data set [3] the target is T2, human recombinant A2AAR (Homo sapiens, UniProt P29274).
T2 construct: expressed in transfected cells; membrane preparation
The data set is described as follows: Radioligand binding at human A2AAR ([3H]NECA displacement, CHO cell membranes). The conditions noted are these: displacement of [3H]NECA, CHO membranes, n = 3–5, means ± standard errors. How it is done: Most of the compounds were also evaluated at A2BARs in a functional study using the GloSensor cAMP assay. […] In the case of A2BARs, Ki-values were calculated from IC50-values determined by the inhibition of NECA-stimulated adenylyl cyclase activity.
Preparation of membranes: Cell membranes for binding assays were prepared mechanically detaching the cells from the petri and suspending them in a cold hypotonic buffer (5 mM Tris/HCl, 2 mM EDTA, pH 7.4). The cell suspension was homogenized (Ultra-Turrax, 2 × 15 s at maximum speed) and the homogenate centrifuged for 10 min (4 °C) to 1000× g. […] The amount of the protein suspension was determined according to the […] using the BCA Protein Assay Kit (Pierce), frozen in liquid nitrogen, and stored at −80 °C.
(§2) Binding assays: The dissociation constants of the radioligand (KD) were calculated through saturation assays, while the dissociation constants of the compounds under study (Ki) were determined by competition experiments. All binding data were calculated by nonlinear regression curves using the software GraphPad Prism 5 (GraphPad Software, San Diego, CA, USA). The increasing concentrations of the radioligand saturation binding ([^3H]-CCPA for the A1 receptor subtype, [^3H]-NECA for the A2A receptor subtype, and [^3H]-HEMADO for the A3 receptor) subtype were incubated in a total volume of 250 μL containing 0.2 U/mL of Ado deaminase (ADA) and 12 micrograms of membrane proteins in the specific buffer. In competition experiments for the A1 receptor subtype, each compound was added at increasing concentrations, to the well containing 1 nM of [^3H]-CCPA, to a final volume of 200 μL. The samples were left to incubate for 3 h at room temperature, filtered in a filter 96-well plate (UniFilter GF/C, Perkin-Elmer Life and Analytical Science, Boston, MA) using the FilterMate Cell Harvester (Perkin-Elmer), and washed 3 times with cold distilled water. After drying the filter plate at 40 °C for 30′, they 20 μL of scintillating liquid (Microscint-20, Perkin-Elmer) was added to each well, and then the radioactivity was quantized with the MicroBeta2 Plate Counter (Perkin-Elmer). The conditions for binding experiments at A2A and A3 receptor subtypes were essentially the same as for the A1AR using [^3H]-NECA (N-ethylcarboxyamideAdo) at a concentration of 10 nM and [^3H]-HEMADO (2-(1-hexyne)-N^6-methylAdo) at a concentration of 1 nM as radioligands, respectively. The samples were incubated with 12 micrograms of protein for 3 h at room temperature and filtered as described above.
(§3) The non-specific binding was determined in the presence of 1 mM theophylline for the A1AR, or 100 µM R-PIA (N^6-(1-methyl-2-phenylethyl)Ado) for the A2A and A3 receptors.
(Loss of bound radioactivity is the signal in a displacement assay; it reports binding, not function.)

The target of data set [4] is T3, human recombinant A3AR (Homo sapiens, UniProt P0DMS8).
T3 construct: expressed in transfected cells; membrane preparation
T3 sequence (P0DMS8 1-318): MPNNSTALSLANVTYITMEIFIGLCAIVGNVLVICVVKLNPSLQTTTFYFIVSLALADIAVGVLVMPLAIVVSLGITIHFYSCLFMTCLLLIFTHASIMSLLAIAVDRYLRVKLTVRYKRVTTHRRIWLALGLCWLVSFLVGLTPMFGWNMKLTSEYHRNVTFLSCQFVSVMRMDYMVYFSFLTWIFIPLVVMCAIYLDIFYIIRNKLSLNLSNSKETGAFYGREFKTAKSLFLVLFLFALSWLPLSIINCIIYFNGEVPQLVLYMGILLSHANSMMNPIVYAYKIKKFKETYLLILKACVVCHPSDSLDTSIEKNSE
The data set is described as follows: Radioligand binding at human A3AR ([3H]HEMADO displacement, CHO cell membranes). As to conditions: displacement of [3H]HEMADO, n = 3–5, means ± standard errors. How it is done:
as §1
(§4) Cell culture: The Chinese hamster ovary cells (CHO) stably transfected with the desired ARs were grown in DMEM/F12 medium containing 10% FBS (fetal bovine serum), 100 U/mL penicillin, 100 µg/mL streptomycin, 2.5 μg/mL amphotericin B, 1 mM sodium pyruvate, 0.1 mg/mL genetecina (G418), and incubated at 37 °C in a gaseous mixture of 5% CO2: […].
(§5) Preparation of membranes: Cell membranes for binding assays were prepared mechanically detaching the cells from the petri and suspending them in a cold hypotonic buffer (5 mM Tris/HCl, 2 mM EDTA, pH 7.4). The cell suspension was homogenized (Ultra-Turrax, 2 × 15 s at maximum speed) and the homogenate centrifuged for 10 min (4 °C) to 1000× g. The supernatant was subsequently centrifuged for 30 min (4 °C) at 100,000× g and the pellet containing the membrane proteins was re-suspended in a specific buffer for each receptor subtype (A1: 50 mM Tris/HCl, pH 7.4; A2A: 50 mM Tris/HCl, 10 mM MgCl2, pH 7.4; A3: 50 mM Tris/HCl, 10 mM MgCl2, 1 mM EDTA, pH 8.25). The amount of the protein suspension was determined according to the […] using the BCA Protein Assay Kit (Pierce), frozen in liquid nitrogen, and stored at −80 °C.
as §2, §3

Data set [5] addresses T4, human recombinant A1AR (Homo sapiens, UniProt P30542).
T4 construct: expressed in transfected cells; membrane preparation
T4 sequence (P30542 1-326): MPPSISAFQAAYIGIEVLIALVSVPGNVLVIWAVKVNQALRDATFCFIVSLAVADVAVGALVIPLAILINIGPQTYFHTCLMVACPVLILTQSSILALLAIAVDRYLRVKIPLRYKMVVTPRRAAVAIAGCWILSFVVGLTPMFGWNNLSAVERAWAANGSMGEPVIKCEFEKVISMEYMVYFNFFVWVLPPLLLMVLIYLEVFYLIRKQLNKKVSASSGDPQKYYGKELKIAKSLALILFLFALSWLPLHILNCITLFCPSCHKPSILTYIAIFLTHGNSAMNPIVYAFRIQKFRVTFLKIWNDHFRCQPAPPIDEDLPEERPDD
Nature of the data set: Radioligand binding at human A1AR ([3H]CCPA displacement, CHO cell membranes). As to conditions: displacement of [3H]CCPA, n = 3–5, means ± standard errors. How it is done: as §1, §4, §5, §2, §3

In general, Ki refers to the dissociation constant of the complex between target and ligand, obtained from inhibition or displacement. As usually defined, the melting point is the temperature of the solid-liquid transition.

T2 sequence (P29274 whole entry): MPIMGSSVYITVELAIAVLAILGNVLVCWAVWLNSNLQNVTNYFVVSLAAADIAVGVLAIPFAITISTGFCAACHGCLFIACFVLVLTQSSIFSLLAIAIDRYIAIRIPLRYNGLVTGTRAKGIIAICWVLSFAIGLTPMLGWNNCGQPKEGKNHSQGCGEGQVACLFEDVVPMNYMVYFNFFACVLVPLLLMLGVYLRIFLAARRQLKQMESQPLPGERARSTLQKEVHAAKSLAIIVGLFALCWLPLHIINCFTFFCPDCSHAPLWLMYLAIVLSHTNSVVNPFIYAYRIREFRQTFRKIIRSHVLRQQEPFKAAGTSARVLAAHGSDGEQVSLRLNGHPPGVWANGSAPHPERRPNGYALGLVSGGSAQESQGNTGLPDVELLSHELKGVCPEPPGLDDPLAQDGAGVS

`COCCOc1ccc(N2CCN(CCn3ncc4c3nc(N)n3nc(-c5ccco5)nc43)CC2)cc1` [Preladenant]: in data set [1], the efficacy versus placebo result is given as “efficacy was not significantly higher than the placebo”.

On to `CCn1cnc2c(N)nc(NCCc3ccc(OC)cc3)nc21` [compound 7, 9-Ethyl-N^2-(4-methoxyphenethyl)-9H-purine-2,6-diamine], for which the inhibitory constant (Ki) was over 30 µM in data set [2], 1.46 µM in data set [3], 23.6 µM in data set [4] and 5.84 µM in data set [5].

For `CCn1c(Br)nc2c(N)nc(NCCc3ccc(OC)cc3)nc21` [compound 8, 8-Bromo-9-ethyl-N^2-(4-methoxyphenethyl)-9H-purine-2,6-diamine], the Ki was 4.26 µM in data set [2], 0.034 µM in data set [3], 4.03 µM in data set [4] and 0.545 µM in data set [5].

In the case of `CCn1c(Br)nc2c(N)nc(NCCc3ccc(O)cc3)nc21` [compound 9, 4-(2-((6-Amino-9-ethyl-8-bromo-9H-purin-2-yl)amino)ethyl)phenol], the Ki was 0.393 µM in data set [2], 0.044 µM in data set [3], 3.81 µM in data set [4] and 0.411 µM in data set [5].

On to `CCn1c(O)nc2c(N)nc(NCCc3ccc(OC)cc3)nc21` [compound 10], for which the inhibition constant Ki in data set [2] was over 30 µM; in data set [3] it was over 30 µM; in data set [4], 0.777 µM; in data set [5], 1.39 µM.

Regarding `CCn1c(O)nc2c(N)nc(NCCc3ccc(O)cc3)nc21` [compound 11], the inhibition constant Ki was over 30 µM in data set [2], over 30 µM in data set [3], over 30 µM in data set [4] and 7.05 µM in data set [5].

As to `CCn1c(-c2ccco2)nc2c(N)nc(NCCc3ccc(OC)cc3)nc21` [compound 12, 9-ethyl-8-(furan-2-yl)-N^2-(4-methoxyphenethyl)-9H-purine-2,6-diamine], the Ki in data set [2] is over 30 µM; in data set [3], 0.001 µM; in data set [4], 0.016 µM; in data set [5], 0.0026 µM.

As for `CSc1nc(N)n2nc(S(C)(=O)=O)nc2n1` [compound 17, 2-(Methylsulfonyl)-5-(methylthio)-[1,2,4]triazolo [1,5-a][1,3,5]triazin-7-amine], the inhibitory constant (Ki) in data set [3] came out at 3.24 µM; in data set [4], 14.7 µM; in data set [5] it was 5.72 µM.

As to `CCOc1nc2nc(SC)nc(N)n2n1` [compound 18, 2-Ethoxy-5-(methylthio)-[1,2,4]triazolo[1,5-a][1,3,5]triazin-7-amine], the melting point was 220 °C (dec.). In addition, in data set [3], the inhibition constant Ki is 0.583 µM. Besides, in data set [4], the Ki was 9.72 µM. Moreover, the inhibitory constant (Ki) in data set [5] was 4.57 µM.

On to `CCOc1nc(N)n2nc(OCC)nc2n1` [compound 19, 2,5-diethoxy-[1,2,4]triazolo[1,5-a][1,3,5]triazin-7-amine], for which the values for the Ki in data set [3], in data set [4] and in data set [5] were 1.06 µM, 4.79 µM and 6.36 µM, respectively.
